≈ marks a conversion by molar mass, not a printed value.
Legend:
[1] = Stability of the compound in CaCl2 assessed as change in secondary structure by CD spectra analysis; assay type: physicochemical
[2] = tested on: Candida albicans; test: Antifungal activity against Candida albicans CGMCC 2.2086 assessed as inhibition of fungal growth incubated for 48 hrs in presence of CaCl2; assay type: functional
[3] = tested on: Candida albicans; test: Antifungal activity against Candida albicans CGMCC 2.2086 assessed as inhibition of fungal growth incubated for 48 hrs; assay type: functional
[4] = tested on: Candida albicans; test: Antifungal activity against Candida albicans 14936 assessed as inhibition of fungal growth incubated for 48 hrs; assay type: functional
[5] = Hemolytic activity in human red blood cells assessed as hemolysis rate at 512 uM incubated for 1 hr relative to control; assay type: toxicity, cell-based, Erythrocyte; conditions: read-out: Activity
[6] = tested on: Candida albicans; test: Antifungal activity against Candida albicans SP3903 assessed as inhibition of fungal growth incubated for 48 hrs; assay type: functional
[7] = tested on: Candida albicans; test: Antifungal activity against Candida albicans SP3902 assessed as inhibition of fungal growth incubated for 48 hrs; assay type: functional
[8] = tested on: Candida albicans; test: Antifungal activity against Candida albicans CGMCC 2.2086 assessed as inhibition of fungal growth incubated for 48 hrs in presence of NH4Cl; assay type: functional
[9] = Stability of the compound in NaCl assessed as change in secondary structure by CD spectra analysis; assay type: physicochemical
[10] = tested on: Candida albicans; test: Antifungal activity against Candida albicans 17546 assessed as inhibition of fungal growth incubated for 48 hrs; assay type: functional
[11] = tested on: Candida albicans; test: Antifungal activity against Candida albicans CGMCC 2.2086 assessed as inhibition of fungal growth incubated for 48 hrs in presence of MgCl2; assay type: functional
[12] = tested on: Candida tropicalis; test: Antifungal activity against Candida tropicalis CGMCC 2.1975 assessed as inhibition of fungal growth incubated for 48 hrs; assay type: functional
[13] = Stability of the compound in FeCl3 assessed as change in secondary structure by CD spectra analysis; assay type: physicochemical
[14] = tested on: Candida albicans; test: Antifungal activity against Candida albicans CGMCC 2.2086 assessed as inhibition of fungal growth incubated for 48 hrs in presence of NaCl; assay type: functional
[15] = tested on: Candida parapsilosis; test: Antifungal activity against Candida parapsilosis CGMCC 2.3989 assessed as inhibition of fungal growth incubated for 48 hrs; assay type: functional; conditions: Lodderomyces parapsilosis
[16] = tested on: Candida albicans; test: Antifungal activity against Candida albicans SP3931 assessed as inhibition of fungal growth incubated for 48 hrs; assay type: functional
[17] = Stability of the compound in MgCl2 assessed as change in secondary structure by CD spectra analysis; assay type: physicochemical
[18] = tested on: Candida albicans; test: Antifungal activity against Candida albicans CGMCC 2.2086 assessed as inhibition of fungal growth incubated for 48 hrs in presence of FeCl3; assay type: functional
[19] = Stability of the compound in KCl assessed as change in secondary structure by CD spectra analysis; assay type: physicochemical
[20] = Hemolytic activity in human red blood cells assessed as hemolysis incubated for 1 hr; assay type: toxicity, cell-based, Erythrocyte
[21] = tested on: Candida albicans; test: Antifungal activity against Candida albicans CGMCC 2.2086 assessed as inhibition of fungal growth incubated for 48 hrs in presence of ZnCl2; assay type: functional
[22] = tested on: Candida albicans; test: Antifungal activity against Candida albicans SP3876 assessed as inhibition of fungal growth incubated for 48 hrs; assay type: functional
[23] = tested on: Candida albicans; test: Antifungal activity against Fluconazole-resistant Candida albicans 56214 assessed as inhibition of fungal growth incubated for 48 hrs; assay type: functional
[24] = tested on: Candida albicans; test: Antifungal activity against Fluconazole-resistant Candida albicans 58288 assessed as inhibition of fungal growth incubated for 48 hrs; assay type: functional
[25] = Stability of the compound in ZnCl2 assessed as change in secondary structure by CD spectra analysis; assay type: physicochemical
[26] = tested on: Candida albicans; test: Antifungal activity against Candida albicans 56452 assessed as inhibition of fungal growth incubated for 48 hrs; assay type: functional
[27] = Stability of the compound in NH4Cl assessed as change in secondary structure by CD spectra analysis; assay type: physicochemical
[28] = tested on: Candida albicans; test: Antifungal activity against Candida albicans CGMCC 2.2086 assessed as inhibition of fungal growth incubated for 48 hrs in presence of KCl; assay type: functional

| Compound | Stability [1] | MIC95 [2] [µM] | MIC95 [3] [µM] | MIC95 [4] [µM] | hemolysis at 1 h, 512 µM [5] [%] | MIC95 [6] [µM] | MIC95 [7] [µM] | MIC95 [8] [µM] | Stability [9] | MIC95 [10] [µM] | MIC95 [11] [µM] | MIC95 [12] [µM] | Stability [13] | MIC95 [14] [µM] | MIC95 [15] [µM] | MIC95 [16] [µM] | Stability [17] | MIC95 [18] [µM] | Stability [19] | HC50 at 1 h [20] [µM] | other results |
| --- | --- | --- | --- | --- | --- | --- | --- | --- | --- | --- | --- | --- | --- | --- | --- | --- | --- | --- | --- | --- | --- |
| CC(C)[C@H](N)C(=O)N[C@H](C(=O)N[C@H](CCCNC(=N)N)C(=O)N[C@@H](CCCNC(=N)N)C(=O)N[C@@H](Cc1c[nH]cn1)C(=O)N[C@H](C(=O)N[C@H](C(N)=O)C(C)C)C(C)C)C(C)C | Stable | > 64 | > 64 | > 64 | -0.02 | > 64 | > 64 | > 64 | Unstable | > 64 | > 64 | 64 (≈ 55.2 µg/mL) | Stable | > 64 | > 64 | > 64 | Stable | > 64 | Stable | > 512 | MIC95 [21]: > 64 µM; MIC95 [22]: > 64 µM; MIC95 [23]: > 64 µM; MIC95 [24]: > 64 µM; Stability [25]: Stable; MIC95 [26]: > 64 µM; Stability [27]: Stable; MIC95 [28]: > 64 µM |
| CC(C)[C@H](N)C(=O)N[C@H](C(=O)N[C@H](CCCNC(=N)N)C(=O)N[C@@H](CCCNC(=N)N)C(=O)N[C@@H](Cc1c[nH]cn1)C(=O)N[C@H](C(=O)N[C@H](C(=O)N[C@H](C(=O)N[C@H](C(=O)N[C@H](CCCNC(=N)N)C(=O)N[C@@H](CCCNC(=N)N)C(=O)N[C@@H](Cc1c[nH]cn1)C(=O)N[C@H](C(=O)N[C@H](C(N)=O)C(C)C)C(C)C)C(C)C)C(C)C)C(C)C)C(C)C)C(C)C | Stable | > 64 | > 64 | > 64 | -1.2 | > 64 | > 64 | 64 | Unstable | 64 (≈ 109 µg/mL) | > 64 | 4 (≈ 6.84 µg/mL) | Stable | > 64 | > 64 | > 64 | Stable | > 64 | Stable | > 512 | MIC95 [21]: > 64 µM; MIC95 [22]: > 64 µM; MIC95 [23]: > 64 µM; MIC95 [24]: > 64 µM; Stability [25]: Stable; MIC95 [26]: > 64 µM; Stability [27]: Stable; MIC95 [28]: > 64 µM |
| CC[C@H](C)[C@H](N)C(=O)N[C@H](C(=O)N[C@H](CCCNC(=N)N)C(=O)N[C@@H](CCCNC(=N)N)C(=O)N[C@@H](Cc1c[nH]cn1)C(=O)N[C@H](C(=O)N[C@H](C(N)=O)[C@@H](C)CC)[C@@H](C)CC)[C@@H](C)CC | Stable | > 64 | > 64 | > 64 | -1.57 | > 64 | 64 (≈ 58.8 µg/mL) | > 64 | Unstable | > 64 | > 64 | 64 (≈ 58.8 µg/mL) | Stable | > 64 | > 64 | > 64 | Stable | > 64 | Stable | > 512 | MIC95 [21]: > 64 µM; MIC95 [22]: > 64 µM; MIC95 [23]: > 64 µM; MIC95 [24]: > 64 µM; Stability [25]: Stable; MIC95 [26]: > 64 µM; Stability [27]: Stable; MIC95 [28]: > 64 µM |

Reference: ChEMBL document CHEMBL6134779, “Design of Proteolytic-Resistant Antifungal Peptides by Utilizing Minimum d-Amino Acid Ratios” (J Med Chem, 2024)
